Laboratory results taken from ChEMBL document CHEMBL4265997, “Decision Making in Medicinal Chemistry: The Power of Our Intuition” (ACS Med Chem Lett, 2018).

Molecular target: Estrogen receptor beta (Homo sapiens, UniProt Q92731)
Assay: Antagonist activity at ER-beta (unknown origin)

Estrogen receptor beta, sequence (Q92731 whole entry): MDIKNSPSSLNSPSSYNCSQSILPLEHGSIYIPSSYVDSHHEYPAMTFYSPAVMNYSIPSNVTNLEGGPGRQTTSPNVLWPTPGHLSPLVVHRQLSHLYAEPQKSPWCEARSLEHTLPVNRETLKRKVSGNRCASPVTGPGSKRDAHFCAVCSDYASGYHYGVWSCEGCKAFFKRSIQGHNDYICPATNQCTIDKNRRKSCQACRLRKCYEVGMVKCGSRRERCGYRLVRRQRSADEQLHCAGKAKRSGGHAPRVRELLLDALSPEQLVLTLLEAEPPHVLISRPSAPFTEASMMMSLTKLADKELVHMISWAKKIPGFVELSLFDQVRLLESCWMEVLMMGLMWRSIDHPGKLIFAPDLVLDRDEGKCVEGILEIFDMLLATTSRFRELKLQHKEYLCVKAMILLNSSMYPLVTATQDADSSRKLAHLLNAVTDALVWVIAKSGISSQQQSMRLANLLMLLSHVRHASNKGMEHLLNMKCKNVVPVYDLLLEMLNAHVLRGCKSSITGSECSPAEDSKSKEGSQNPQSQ

Row | Compound | IC50
1 | CNC(=O)c1ccc2nc(C)c3nnc(-c4cc(OCC(C)C)ccc4Cl)n3c2c1 | 0.631 nM
2 | CNC(=O)c1ccc2nc(C)c3nnc(-c4ccccc4Cl)n3c2c1 | 2.51 nM
